Experimental data taken from PubChem BioAssay AID248 (DTP/NCI, 2004).
Where “and” joins values, the source holds several entries; their conditions need not be identical. Identical values can stand only once. Inconclusive results and toxic doses are left out. Rule as the data show it: active = T/C of 150% or more; inactive = T/C below 125%.

Tested on: L1210 leukemia ip in BDF1 mice, survival T/C
Test: NCI In Vivo Anticancer Drug Screen. Data for tumor model L1210 Leukemia (intraperitoneal) in B6D2F1 (BDF1) mice
Settings: endpoint: mean survival time, higher = longer survival
Procedure, shortened: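 Tumor cells were implanted, animals were treated, and survival was followed. The result divides the treated measurement by the vehicle-control measurement.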

[1] = dose: 100.0 mg/kg/injection, schedule: Q01DX001 (ip), vehicle: saline
[2] = dose: 200.0 mg/kg/injection, schedule: Q01DX001 (ip), vehicle: saline
[3] = dose: 400.0 mg/kg/injection, schedule: Q01DX001 (ip), vehicle: saline
[4] = dose: 100.0 mg/kg/injection, schedule: Q04DX003 (ip), vehicle: saline
[5] = dose: 100.0 mg/kg/injection, schedule: Q04DX003 (ip), vehicle: Klucel (hydroxypropylcellulose) (HPC)
[6] = dose: 200.0 mg/kg/injection, schedule: Q04DX003 (ip), vehicle: Klucel (hydroxypropylcellulose) (HPC)
[7] = dose: 400.0 mg/kg/injection, schedule: Q04DX003 (ip), vehicle: Klucel (hydroxypropylcellulose) (HPC)
[8] = dose: 100.0 mg/kg/injection, schedule: Q01DX009 (ip), vehicle: Klucel (hydroxypropylcellulose) (HPC)
[9] = dose: 200.0 mg/kg/injection, schedule: Q01DX009 (ip), vehicle: Klucel (hydroxypropylcellulose) (HPC)
[10] = dose: 400.0 mg/kg/injection, schedule: Q01DX009 (ip), vehicle: Klucel (hydroxypropylcellulose) (HPC)
[11] = dose: 50.0 mg/kg/injection, schedule: Q01DX009 (ip), vehicle: saline with Tween-80
[12] = dose: 100.0 mg/kg/injection, schedule: Q01DX009 (ip), vehicle: saline with Tween-80
[13] = dose: 200.0 mg/kg/injection, schedule: Q01DX009 (ip), vehicle: saline with Tween-80
[14] = dose: 400.0 mg/kg/injection, schedule: Q01DX009 (ip), vehicle: saline with Tween-80
[15] = dose: 100.0 mg/kg/injection, schedule: Q04DX003 (ip), vehicle: saline with Tween-80
[16] = dose: 200.0 mg/kg/injection, schedule: Q04DX003 (ip), vehicle: saline with Tween-80
[17] = dose: 100.0 mg/kg/injection, schedule: Q04DX002 (ip), vehicle: gum acacia
[18] = dose: 200.0 mg/kg/injection, schedule: Q04DX002 (ip), vehicle: gum acacia
[19] = dose: 400.0 mg/kg/injection, schedule: Q04DX002 (ip), vehicle: gum acacia

Measured: T/C

OCC1OC(O)C(O)C(O)C1O (stereo not given)
inactive: dose: 100.0 mg/kg/injection, schedule: Q01DX009 (ip), vehicle: saline 96 % of control | dose: 200.0 mg/kg/injection, schedule: Q01DX009 (ip), vehicle: saline 98 % of control | dose: 400.0 mg/kg/injection, schedule: Q01DX009 (ip), vehicle: saline 107 % of control | dose: 500.0 mg/kg/injection, schedule: Q01DX009 (ip), vehicle: saline 93 % of control | dose: 500.0 mg/kg/injection, schedule: Q04DX003 (ip), vehicle: saline 96 % of control | dose: 1000.0 mg/kg/injection, schedule: Q01DX009 (ip), vehicle: saline 90 % of control | dose: 1000.0 mg/kg/injection, schedule: Q04DX003 (ip), vehicle: saline 96 % of control | dose: 2000.0 mg/kg/injection, schedule: Q01DX009 (ip), vehicle: saline 106 % of control | dose: 2000.0 mg/kg/injection, schedule: Q04DX003 (ip), vehicle: saline 93 % of control | dose: 4000.0 mg/kg/injection, schedule: Q01DX009 (ip), vehicle: saline 102 % of control | dose: 4000.0 mg/kg/injection, schedule: Q04DX003 (ip), vehicle: saline 94 % of control

Nc1ccc(N=Nc2ccc(S(N)(=O)=O)cc2)c(N)n1
inactive: [1] 107 % of control | [2] 114 % of control | [3] 104 % of control

[CH3][Sb]1([Br])[CH2]CC[CH2]1
inactive: [4] 93 % of control | dose: 200.0 mg/kg/injection, schedule: Q04DX003 (ip), vehicle: saline 101 % of control

CN1OCC2CCCC(c3ccccc3)C21 (stereo not given)
inactive: [5] 97 % of control | [6] 100 % of control

O=C1CCCCC1(O)C[N+](=O)[O-] (stereo not given)
inactive: dose: 75.0 mg/kg/injection, schedule: Q01DX001 (ip), vehicle: carboxymethylcellulose (CMC) 96 % of control

O=C1OCCN1C(=O)c1ccc(C(=O)N2CCOC2=O)cc1
inactive: dose: 100.0 mg/kg/injection, schedule: Q01DX001 (ip), vehicle: Klucel (hydroxypropylcellulose) (HPC) 94 % of control | dose: 100.0 mg/kg/injection, schedule: Q01DX007 (ip), vehicle: Klucel (hydroxypropylcellulose) (HPC) 89 % of control | [5] 97 % of control | dose: 200.0 mg/kg/injection, schedule: Q01DX001 (ip), vehicle: Klucel (hydroxypropylcellulose) (HPC) 87 % of control | dose: 200.0 mg/kg/injection, schedule: Q01DX007 (ip), vehicle: Klucel (hydroxypropylcellulose) (HPC) 92 % of control | [6] 101 % of control | dose: 400.0 mg/kg/injection, schedule: Q01DX001 (ip), vehicle: Klucel (hydroxypropylcellulose) (HPC) 92 % of control | dose: 400.0 mg/kg/injection, schedule: Q01DX007 (ip), vehicle: Klucel (hydroxypropylcellulose) (HPC) 90 % of control | [7] 95 % of control

CC(=O)OCC1=C(COC(C)=O)C2OC1C1OC(=O)OC21 (stereo not given)
inactive: dose: 75.0 mg/kg/injection, schedule: Q01DX009 (ip), vehicle: Klucel (hydroxypropylcellulose) (HPC) 97 % of control | [8] 105 % of control | dose: 150.0 mg/kg/injection, schedule: Q01DX009 (ip), vehicle: Klucel (hydroxypropylcellulose) (HPC) 92 % of control | [9] 97 % of control | dose: 300.0 mg/kg/injection, schedule: Q01DX009 (ip), vehicle: Klucel (hydroxypropylcellulose) (HPC) 104 % of control | [10] 101 % of control

O=Cc1nccn1Cc1ccccc1
inactive: dose: 25.0 mg/kg/injection, schedule: Q01DX009 (ip), vehicle: saline with Tween-80 93 % of control | [11] 98 % of control | [12] 100 % of control

Nc1nc(N)c2cc(NCc3ccc(F)cc3)ccc2n1
inactive: dose: 3.13 mg/kg/injection, schedule: Q01DX009 (ip), vehicle: saline with Tween-80 90 % of control | dose: 6.25 mg/kg/injection, schedule: Q01DX009 (ip), vehicle: saline with Tween-80 92 % of control | dose: 6.25 mg/kg/injection, schedule: Q04DX003 (ip), vehicle: saline with Tween-80 100 % of control | dose: 12.5 mg/kg/injection, schedule: Q01DX009 (ip), vehicle: saline with Tween-80 97 % of control

Cc1ccc([N+](=O)[O-])cc1NC(=O)C(Cl)(Cl)Cl
inactive: [12] 94 % of control | [13] 98 % of control | [14] 100 % of control

O=C1C=C(c2ccccc2)C(c2ccccc2)C1O (stereo not given)
inactive: dose: 75.0 mg/kg/injection, schedule: Q01DX001 (ip), vehicle: other 102 % of control | dose: 150.0 mg/kg/injection, schedule: Q01DX001 (ip), vehicle: other 97 % of control

O=C(/C=N/O)Nc1ccc([N+](=O)[O-])cc1
inactive: dose: 100.0 mg/kg/injection, schedule: Q04DX002 (ip), vehicle: Klucel (hydroxypropylcellulose) (HPC) 92 % of control | dose: 200.0 mg/kg/injection, schedule: Q04DX002 (ip), vehicle: Klucel (hydroxypropylcellulose) (HPC) 100 % of control | dose: 400.0 mg/kg/injection, schedule: Q04DX002 (ip), vehicle: Klucel (hydroxypropylcellulose) (HPC) 92 % of control

CCOC(=O)C1(C)OC1c1ccc2c(c1)OCO2 (stereo not given)
inactive: [12] 106 % of control | [13] 95 % of control | [14] 103 % of control

O=S(=O)(CC(Cl)c1ccc(Cl)cc1)c1ccccc1 (stereo not given)
inactive: [1] 112 % of control | [2] 114 % of control | [3] 109 % of control

Cc1ccc([N+](=O)[O-])o1
inactive: [15] 91 % of control | [16] 87 % of control

CNCCC(=O)NCC1C(c2ccccc2)C1c1ccccc1 (stereo not given)
inactive: dose: 6.25 mg/kg/injection, schedule: Q04DX002 (ip), vehicle: saline with Tween-80 97 % of control | dose: 12.5 mg/kg/injection, schedule: Q04DX002 (ip), vehicle: saline with Tween-80 93 % of control and 96 % of control | dose: 25.0 mg/kg/injection, schedule: Q04DX002 (ip), vehicle: saline with Tween-80 100 % of control | dose: 50.0 mg/kg/injection, schedule: Q04DX002 (ip), vehicle: saline with Tween-80 91 % of control | dose: 100.0 mg/kg/injection, schedule: Q04DX002 (ip), vehicle: saline with Tween-80 93 % of control and 88 % of control

CCOC(=O)CN1CC(=O)OC(C(Cl)(Cl)Cl)C1 (stereo not given)
inactive: [15] 98 % of control | [16] 90 % of control | dose: 400.0 mg/kg/injection, schedule: Q04DX003 (ip), vehicle: saline with Tween-80 93 % of control

O=C(O)CCC1NC(=O)NC1=O (stereo not given)
inactive: [1] 96 % of control | [2] 96 % of control | [3] 91 % of control

O=C(O)CC1CCCCC1c1ccccc1 (stereo not given)
inactive: [8] 98 % of control | [5] 96 % of control | [9] 100 % of control | [6] 106 % of control | [10] 87 % of control | [7] 95 % of control

O=C(/C=C(\c1ccccc1)N1CC1)c1ccccc1
inactive: [5] 106 % of control | [6] 110 % of control

CSc1ccc(P(=NS(=O)(=O)c2ccc(C)cc2)(c2ccc(SC)cc2)c2ccc(SC)cc2)cc1
inactive: [8] 104 % of control | [9] 98 % of control

COc1ccc(/C=N/NC(=O)c2ccc(O)cc2)cc1
inactive: [8] 100 % of control | [9] 98 % of control | [10] 94 % of control

CC(C)CN1CCC(=O)NC1=O
inactive: dose: 100.0 mg/kg/injection, schedule: Q01DX Z (ip), vehicle: saline 100 % of control | dose: 200.0 mg/kg/injection, schedule: Q01DX Z (ip), vehicle: saline 94 % of control

O=C(O)c1ccccc1C(=O)Nc1ccc([N+](=O)[O-])cc1Cl
inactive: dose: 50.0 mg/kg/injection, schedule: Q01DX009 (ip), vehicle: Klucel (hydroxypropylcellulose) (HPC) 94 % of control | [8] 95 % of control | [5] 97 % of control | [9] 89 % of control | [6] 97 % of control

CCCC(CCN1CCCC1)(CNC(=O)CN(CC)CC)c1cccc2ccccc12 (stereo not given)
inactive: dose: 25.0 mg/kg/injection, schedule: Q04DX003 (ip), vehicle: saline 103 % of control | dose: 50.0 mg/kg/injection, schedule: Q04DX003 (ip), vehicle: saline 104 % of control | [4] 106 % of control

CC(C)N1C(Nc2ccccn2)C(C)(C)C(C)(C)C1Nc1ccccn1 (stereo not given)
inactive: [17] 110 % of control | [18] 120 % of control | [19] 97 % of control

S=C(N/N=C\c1ccccc1)N/N=C/c1ccccc1
inactive: [17] 93 % of control | [18] 96 % of control | [19] 93 % of control

O=C(CNC(=O)Nc1ccc(Cl)c(Cl)c1)N/N=C/c1c(O)ccc2ccccc12
inactive: [11] 93 % of control | [12] 93 % of control | [13] 91 % of control
